Results as given in the NIST ThermoML archive (doi:10.1016/j.fluid.2006.05.007).
± gives the expanded uncertainty stated by the source.

Test: xn = mol fraction of the nth substance listed
Details: Fluid (supercritical or subcritical phases)

CO [methanol] + O
Details	mass density [kg/m3]
572.91 K, 10085 kPa, x1 = 0.3044	77.4 ± 1.6
573.08 K, 10068 kPa, x1 = 0.4031	79.4 ± 1.6
573.15 K, 10080 kPa, x1 = 0.5144	83.3 ± 1.6
573.26 K, 10081 kPa, x1 = 0.59	85.5 ± 1.7
573.31 K, 10076 kPa, x1 = 0.7905	92.4 ± 1.7
573.34 K, 10081 kPa, x1 = 0.8802	94.8 ± 1.7
573.35 K, 10077 kPa, x1 = 0.6896	87.7 ± 1.7
573.43 K, 10083 kPa, x1 = 0.0997	405 ± 3.6
573.46 K, 11526 kPa, x1 = 0.4031	107.2 ± 1.8
573.49 K, 10078 kPa, x1 = 0.0494	679.2 ± 3.2
573.52 K, 11527 kPa, x1 = 0.5144	108.7 ± 1.9
573.63 K, 11542 kPa, x1 = 0.59	111.3 ± 1.9
573.67 K, 11523 kPa, x1 = 0.6896	113.3 ± 1.9
573.72 K, 11537 kPa, x1 = 0.0175	704.3 ± 3.2
573.74 K, 11532 kPa, x1 = 0.7905	115.7 ± 1.9
573.74 K, 11535 kPa, x1 = 0.8802	118.9 ± 1.9
573.75 K, 11533 kPa, x1 = 0.007	712.1 ± 3.1
573.78 K, 11525 kPa, x1 = 0.0997	646.8 ± 3.5
573.78 K, 11527 kPa, x1 = 0.1971	534.3 ± 4.2
573.78 K, 11530 kPa, x1 = 0.1484	611.5 ± 3.7
573.79 K, 11533 kPa, x1 = 0.0494	682.1 ± 3.3
574.29 K, 20003 kPa, x1 = 0.0997	671.8 ± 4.2
574.34 K, 20013 kPa, x1 = 0.3044	560.2 ± 5.2
574.34 K, 20016 kPa, x1 = 0.6896	398.6 ± 4.8
574.35 K, 20000 kPa, x1 = 0.0494	701.9 ± 3.9
574.37 K, 19997 kPa, x1 = 0.1484	645.8 ± 4.4
574.37 K, 20007 kPa, x1 = 0.59	431.4 ± 5.2
574.37 K, 20014 kPa, x1 = 0.1971	617 ± 4.7
574.37 K, 20019 kPa, x1 = 0.4031	512.2 ± 5.7
574.38 K, 20012 kPa, x1 = 0.7905	375.2 ± 4.6
574.39 K, 20005 kPa, x1 = 0.5144	460.1 ± 5.4
574.45 K, 20012 kPa, x1 = 0.8802	354.5 ± 4.4
588.56 K, 13757 kPa, x1 = 0.3044	135.3 ± 2.3
588.59 K, 13753 kPa, x1 = 0.5144	131.6 ± 2.3
588.63 K, 13755 kPa, x1 = 0.4031	133 ± 2.3
588.68 K, 13752 kPa, x1 = 0.7905	137.1 ± 2.3
588.69 K, 13759 kPa, x1 = 0.59	132.6 ± 2.3
588.74 K, 13760 kPa, x1 = 0.6896	134.8 ± 2.3
588.76 K, 13753 kPa, x1 = 0.1971	409.6 ± 4.4
588.79 K, 13754 kPa, x1 = 0.8802	139.5 ± 2.4
588.8 K, 13760 kPa, x1 = 0.1484	563.2 ± 4.6
588.81 K, 13767 kPa, x1 = 0.007	679.9 ± 3.7
588.83 K, 13755 kPa, x1 = 0.0997	606.6 ± 4.2
588.84 K, 13753 kPa, x1 = 0.0175	672.4 ± 3.8
588.85 K, 13755 kPa, x1 = 0.0494	647.6 ± 3.9
